From ChEMBL document CHEMBL2417435, “The discovery of potent blockers of the canonical transient receptor channels, TRPC3 and TRPC6, based on an anilino-thiazole pharmacophore” (Bioorg Med Chem Lett, 2013)
The source made the active and inactive calls. The calls are words filed in the database; no cut-off is given here.

Legend:
[1] = target: T1, Short transient receptor potential channel 3 (Homo sapiens, UniProt Q13507); assay: Inhibition of human recombinant TRPC3 expressed in HEK293-MSRII cells assessed as carbachol-stimulated Ca2+/Na+ influx after 10 mins by FLIPR assay; assay type: cell-based
T1 sequence (Q13507 whole entry): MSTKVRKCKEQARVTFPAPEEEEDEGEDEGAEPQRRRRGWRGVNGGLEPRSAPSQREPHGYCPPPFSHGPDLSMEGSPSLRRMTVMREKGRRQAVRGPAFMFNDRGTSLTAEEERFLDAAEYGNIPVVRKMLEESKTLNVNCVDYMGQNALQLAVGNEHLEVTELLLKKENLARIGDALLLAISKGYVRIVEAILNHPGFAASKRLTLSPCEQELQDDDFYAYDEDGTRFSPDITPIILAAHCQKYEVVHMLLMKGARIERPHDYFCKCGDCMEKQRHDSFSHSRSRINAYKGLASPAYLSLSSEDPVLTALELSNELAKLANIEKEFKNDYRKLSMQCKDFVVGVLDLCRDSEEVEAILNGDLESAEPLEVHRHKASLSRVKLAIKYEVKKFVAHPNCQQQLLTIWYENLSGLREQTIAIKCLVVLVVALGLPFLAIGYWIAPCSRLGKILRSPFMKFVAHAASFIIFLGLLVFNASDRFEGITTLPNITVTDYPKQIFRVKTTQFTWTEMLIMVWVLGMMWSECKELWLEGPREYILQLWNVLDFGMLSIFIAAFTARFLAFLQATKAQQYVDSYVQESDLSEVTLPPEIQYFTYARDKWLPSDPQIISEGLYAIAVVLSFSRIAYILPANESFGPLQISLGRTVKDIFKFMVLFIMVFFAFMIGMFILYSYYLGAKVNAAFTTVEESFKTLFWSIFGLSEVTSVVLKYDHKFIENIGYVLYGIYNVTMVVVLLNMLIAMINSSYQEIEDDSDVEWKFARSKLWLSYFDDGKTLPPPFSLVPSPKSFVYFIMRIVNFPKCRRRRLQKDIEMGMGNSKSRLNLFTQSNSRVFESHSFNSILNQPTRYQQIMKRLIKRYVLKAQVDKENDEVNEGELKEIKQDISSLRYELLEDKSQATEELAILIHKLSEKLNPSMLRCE

[2] = target: T2, Short transient receptor potential channel 6 (Homo sapiens, UniProt Q9Y210); assay: Inhibition of human recombinant TRPC6 expressed in HEK293-MSRII cells assessed as carbachol-stimulated Ca2+/Na+ influx after 10 mins by FLIPR assay; assay type: cell-based
T2 sequence (Q9Y210 whole entry): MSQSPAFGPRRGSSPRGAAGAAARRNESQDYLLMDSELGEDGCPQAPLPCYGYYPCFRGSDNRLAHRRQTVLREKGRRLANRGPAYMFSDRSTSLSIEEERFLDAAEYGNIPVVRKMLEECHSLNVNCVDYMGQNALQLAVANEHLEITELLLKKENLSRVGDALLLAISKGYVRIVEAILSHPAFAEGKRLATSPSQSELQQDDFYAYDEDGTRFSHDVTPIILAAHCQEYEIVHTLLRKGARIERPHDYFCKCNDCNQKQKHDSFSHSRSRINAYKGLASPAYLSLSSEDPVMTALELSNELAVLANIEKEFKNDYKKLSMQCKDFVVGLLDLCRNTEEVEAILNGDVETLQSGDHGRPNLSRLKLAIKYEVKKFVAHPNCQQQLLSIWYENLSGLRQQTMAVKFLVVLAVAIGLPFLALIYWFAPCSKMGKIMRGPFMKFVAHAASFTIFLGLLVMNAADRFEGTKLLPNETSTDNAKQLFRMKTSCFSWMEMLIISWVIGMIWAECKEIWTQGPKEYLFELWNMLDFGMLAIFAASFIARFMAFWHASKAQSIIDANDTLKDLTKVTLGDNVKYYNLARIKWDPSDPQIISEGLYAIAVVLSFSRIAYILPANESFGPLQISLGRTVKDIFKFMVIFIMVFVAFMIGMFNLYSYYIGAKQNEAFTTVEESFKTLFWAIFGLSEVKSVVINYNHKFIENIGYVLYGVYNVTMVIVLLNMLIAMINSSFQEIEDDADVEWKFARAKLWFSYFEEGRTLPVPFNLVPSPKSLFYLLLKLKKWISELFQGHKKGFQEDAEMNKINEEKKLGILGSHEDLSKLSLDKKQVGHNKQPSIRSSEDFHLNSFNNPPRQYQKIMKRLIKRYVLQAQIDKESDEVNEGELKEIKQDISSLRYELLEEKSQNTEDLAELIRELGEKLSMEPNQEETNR

[3] = target: T3, Short transient receptor potential channel 6 (Homo sapiens) (UniProt Q9Y210); assay: Inhibition of human recombinant TRPC6 expressed in HEK293 cells assessed as 1-oleoyl-2-acetyl-glycerol-stimulated current at 0.01 to 0.03 uM by whole cell electrophysiology assay; assay type: cell-based
T3 sequence (whole entry): T2 sequence (Q9Y210 whole entry)

[4] = target: T4, Short transient receptor potential channel 3 (Homo sapiens) (UniProt Q13507); assay: Inhibition of human recombinant TRPC3 expressed in HEK293 cells assessed as 1-oleoyl-2-acetyl-glycerol-stimulated current at 0.01 to 0.03 uM by whole cell electrophysiology assay; assay type: cell-based
T4 sequence (whole entry): T1 sequence (Q13507 whole entry)

[5] = Oral bioavailability in rat at 0.93 mg/kg; assay type: ADME, organism-based; conditions: in vivo
[6] = system: Rattus norvegicus; assay: Volume of distribution at steady state in rat at 0.93 mg/kg, iv; assay type: ADME, organism-based; design: dose 0.93 mg/kg, route intravenous; conditions: in vivo
[7] = system: Rattus norvegicus; assay: Mean residence time in rat at 0.93 mg/kg, iv; assay type: ADME, organism-based; design: dose 0.93 mg/kg, route intravenous; conditions: in vivo
[8] = system: Rattus norvegicus; assay: Dose normalized AUC in rat at 0.93 mg/kg, iv; assay type: ADME, organism-based; design: dose 0.93 mg/kg, route intravenous; conditions: in vivo
[9] = Cmax in rat at 0.93 mg/kg, iv; assay type: ADME, organism-based; design: dose 0.93 mg/kg, route intravenous; conditions: in vivo
[10] = Oral bioavailability in rat at 1.04 mg/kg; assay type: ADME, organism-based; conditions: in vivo
[11] = Mean residence time in rat at 1.04 mg/kg, iv; assay type: ADME, organism-based; design: dose 1.04 mg/kg, route intravenous; conditions: in vivo
[12] = Clearance in rat at 1.04 mg/kg, iv; assay type: ADME, organism-based; design: dose 1.04 mg/kg, route intravenous; conditions: in vivo
[13] = Cmax in rat at 1.04 mg/kg, iv; assay type: ADME, organism-based; design: dose 1.04 mg/kg, route intravenous; conditions: in vivo
[14] = target: Transient receptor potential cation channel subfamily V member 1 (Homo sapiens, UniProt Q8NER1); assay: Inhibition of TRPV1 (unknown origin) by FLIPR assay
Sequence of Transient receptor potential cation channel subfamily V member 1 (Q8NER1 whole entry): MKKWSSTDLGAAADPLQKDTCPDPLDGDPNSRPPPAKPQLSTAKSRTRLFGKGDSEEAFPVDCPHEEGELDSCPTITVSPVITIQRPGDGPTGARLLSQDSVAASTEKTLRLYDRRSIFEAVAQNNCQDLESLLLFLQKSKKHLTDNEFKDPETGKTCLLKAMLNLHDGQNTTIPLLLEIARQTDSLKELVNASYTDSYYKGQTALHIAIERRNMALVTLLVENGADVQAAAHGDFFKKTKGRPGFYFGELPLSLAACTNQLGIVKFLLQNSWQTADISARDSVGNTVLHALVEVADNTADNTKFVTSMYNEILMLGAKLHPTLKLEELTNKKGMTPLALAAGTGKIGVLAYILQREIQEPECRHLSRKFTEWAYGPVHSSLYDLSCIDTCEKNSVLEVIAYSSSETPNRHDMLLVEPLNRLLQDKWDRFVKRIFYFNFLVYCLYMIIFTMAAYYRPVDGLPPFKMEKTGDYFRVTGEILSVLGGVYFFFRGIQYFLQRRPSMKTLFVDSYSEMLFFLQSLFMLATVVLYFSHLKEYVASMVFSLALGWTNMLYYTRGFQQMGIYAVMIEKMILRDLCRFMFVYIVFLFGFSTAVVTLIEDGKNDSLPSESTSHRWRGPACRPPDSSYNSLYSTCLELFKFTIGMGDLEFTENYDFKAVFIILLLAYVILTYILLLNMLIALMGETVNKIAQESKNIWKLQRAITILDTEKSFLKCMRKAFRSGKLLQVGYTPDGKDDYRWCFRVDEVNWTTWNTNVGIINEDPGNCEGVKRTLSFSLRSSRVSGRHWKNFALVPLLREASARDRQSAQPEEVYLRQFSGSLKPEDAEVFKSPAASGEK

[15] = target: Transient receptor potential cation channel subfamily V member 4 (Homo sapiens, UniProt Q9HBA0); assay: Inhibition of TRPV4 (unknown origin) by FLIPR assay
[16] = target: Sodium channel protein type 5 subunit alpha (Homo sapiens, UniProt Q14524); assay: Inhibition of NaV1.5 channel (unknown origin) by patch express-based electrophysiology assay
Sequence of Sodium channel protein type 5 subunit alpha (Q14524 whole entry): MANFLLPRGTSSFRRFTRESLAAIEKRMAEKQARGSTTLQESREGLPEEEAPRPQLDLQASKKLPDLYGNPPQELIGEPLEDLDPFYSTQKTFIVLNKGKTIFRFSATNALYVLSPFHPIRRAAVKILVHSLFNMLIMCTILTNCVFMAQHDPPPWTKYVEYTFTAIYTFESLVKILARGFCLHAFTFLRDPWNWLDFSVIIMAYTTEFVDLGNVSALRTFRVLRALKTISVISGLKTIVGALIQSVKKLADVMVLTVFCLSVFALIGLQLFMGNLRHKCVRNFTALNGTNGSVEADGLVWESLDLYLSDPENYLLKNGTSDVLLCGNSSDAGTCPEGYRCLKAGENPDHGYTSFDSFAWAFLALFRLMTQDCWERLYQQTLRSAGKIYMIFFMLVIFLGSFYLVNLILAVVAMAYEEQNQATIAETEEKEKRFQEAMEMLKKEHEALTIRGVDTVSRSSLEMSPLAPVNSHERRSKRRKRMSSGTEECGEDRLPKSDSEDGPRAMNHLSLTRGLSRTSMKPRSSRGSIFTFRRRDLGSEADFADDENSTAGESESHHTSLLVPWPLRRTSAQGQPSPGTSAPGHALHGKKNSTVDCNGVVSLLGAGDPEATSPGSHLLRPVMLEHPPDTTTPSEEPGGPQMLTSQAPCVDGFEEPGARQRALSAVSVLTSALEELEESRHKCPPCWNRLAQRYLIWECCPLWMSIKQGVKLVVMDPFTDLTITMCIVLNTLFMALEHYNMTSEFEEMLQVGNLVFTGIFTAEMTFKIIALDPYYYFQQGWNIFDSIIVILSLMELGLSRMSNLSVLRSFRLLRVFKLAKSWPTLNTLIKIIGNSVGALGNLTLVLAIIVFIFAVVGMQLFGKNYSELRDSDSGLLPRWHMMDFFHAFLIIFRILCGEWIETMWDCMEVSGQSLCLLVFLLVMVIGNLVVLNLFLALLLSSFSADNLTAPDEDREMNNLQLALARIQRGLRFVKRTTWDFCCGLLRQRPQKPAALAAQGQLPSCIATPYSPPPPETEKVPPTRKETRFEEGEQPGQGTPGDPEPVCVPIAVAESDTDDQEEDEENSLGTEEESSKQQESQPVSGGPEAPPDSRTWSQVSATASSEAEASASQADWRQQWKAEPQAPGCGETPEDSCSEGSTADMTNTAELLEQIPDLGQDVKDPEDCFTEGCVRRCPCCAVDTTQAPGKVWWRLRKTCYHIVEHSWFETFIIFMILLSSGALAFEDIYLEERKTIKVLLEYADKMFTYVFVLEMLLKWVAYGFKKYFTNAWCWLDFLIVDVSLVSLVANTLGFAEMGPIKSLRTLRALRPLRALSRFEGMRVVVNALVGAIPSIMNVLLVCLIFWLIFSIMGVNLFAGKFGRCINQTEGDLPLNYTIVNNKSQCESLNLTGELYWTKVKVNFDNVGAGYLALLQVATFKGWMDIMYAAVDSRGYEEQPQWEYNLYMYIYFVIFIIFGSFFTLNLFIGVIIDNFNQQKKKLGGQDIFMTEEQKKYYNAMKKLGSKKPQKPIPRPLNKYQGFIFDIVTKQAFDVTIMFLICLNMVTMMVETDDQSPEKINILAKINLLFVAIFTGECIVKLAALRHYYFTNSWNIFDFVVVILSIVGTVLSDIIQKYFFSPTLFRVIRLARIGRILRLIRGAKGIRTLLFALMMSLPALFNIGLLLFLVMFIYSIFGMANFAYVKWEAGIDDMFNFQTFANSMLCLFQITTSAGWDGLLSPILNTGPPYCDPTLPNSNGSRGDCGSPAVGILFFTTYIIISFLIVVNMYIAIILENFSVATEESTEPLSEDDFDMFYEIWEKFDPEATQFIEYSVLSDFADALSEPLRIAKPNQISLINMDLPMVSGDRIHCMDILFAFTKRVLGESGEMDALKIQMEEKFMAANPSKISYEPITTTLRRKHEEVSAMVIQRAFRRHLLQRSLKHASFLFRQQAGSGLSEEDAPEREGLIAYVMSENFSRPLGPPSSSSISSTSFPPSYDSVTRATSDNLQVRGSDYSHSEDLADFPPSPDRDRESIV

[17] = target: Voltage-gated inwardly rectifying potassium channel KCNH2 (Homo sapiens, UniProt Q12809); assay: Inhibition of human ERG channel by patch express-based electrophysiology assay
[18] = system: Rattus norvegicus; assay: Dose normalized AUC in rat at 1.04 mg/kg, iv; assay type: ADME, organism-based; design: dose 1.04 mg/kg, route intravenous; conditions: in vivo
[19] = target: Transient receptor potential cation channel subfamily A member 1 (Homo sapiens, UniProt O75762); assay: Inhibition of TRPA1 (unknown origin) by FLIPR assay
[20] = target: Voltage-dependent L-type calcium channel subunit alpha-1C (Homo sapiens, UniProt Q13936); assay: Inhibition of CaV1.2 channel (unknown origin) by patch express-based electrophysiology assay
Sequence of Voltage-dependent L-type calcium channel subunit alpha-1C (Q13936 whole entry): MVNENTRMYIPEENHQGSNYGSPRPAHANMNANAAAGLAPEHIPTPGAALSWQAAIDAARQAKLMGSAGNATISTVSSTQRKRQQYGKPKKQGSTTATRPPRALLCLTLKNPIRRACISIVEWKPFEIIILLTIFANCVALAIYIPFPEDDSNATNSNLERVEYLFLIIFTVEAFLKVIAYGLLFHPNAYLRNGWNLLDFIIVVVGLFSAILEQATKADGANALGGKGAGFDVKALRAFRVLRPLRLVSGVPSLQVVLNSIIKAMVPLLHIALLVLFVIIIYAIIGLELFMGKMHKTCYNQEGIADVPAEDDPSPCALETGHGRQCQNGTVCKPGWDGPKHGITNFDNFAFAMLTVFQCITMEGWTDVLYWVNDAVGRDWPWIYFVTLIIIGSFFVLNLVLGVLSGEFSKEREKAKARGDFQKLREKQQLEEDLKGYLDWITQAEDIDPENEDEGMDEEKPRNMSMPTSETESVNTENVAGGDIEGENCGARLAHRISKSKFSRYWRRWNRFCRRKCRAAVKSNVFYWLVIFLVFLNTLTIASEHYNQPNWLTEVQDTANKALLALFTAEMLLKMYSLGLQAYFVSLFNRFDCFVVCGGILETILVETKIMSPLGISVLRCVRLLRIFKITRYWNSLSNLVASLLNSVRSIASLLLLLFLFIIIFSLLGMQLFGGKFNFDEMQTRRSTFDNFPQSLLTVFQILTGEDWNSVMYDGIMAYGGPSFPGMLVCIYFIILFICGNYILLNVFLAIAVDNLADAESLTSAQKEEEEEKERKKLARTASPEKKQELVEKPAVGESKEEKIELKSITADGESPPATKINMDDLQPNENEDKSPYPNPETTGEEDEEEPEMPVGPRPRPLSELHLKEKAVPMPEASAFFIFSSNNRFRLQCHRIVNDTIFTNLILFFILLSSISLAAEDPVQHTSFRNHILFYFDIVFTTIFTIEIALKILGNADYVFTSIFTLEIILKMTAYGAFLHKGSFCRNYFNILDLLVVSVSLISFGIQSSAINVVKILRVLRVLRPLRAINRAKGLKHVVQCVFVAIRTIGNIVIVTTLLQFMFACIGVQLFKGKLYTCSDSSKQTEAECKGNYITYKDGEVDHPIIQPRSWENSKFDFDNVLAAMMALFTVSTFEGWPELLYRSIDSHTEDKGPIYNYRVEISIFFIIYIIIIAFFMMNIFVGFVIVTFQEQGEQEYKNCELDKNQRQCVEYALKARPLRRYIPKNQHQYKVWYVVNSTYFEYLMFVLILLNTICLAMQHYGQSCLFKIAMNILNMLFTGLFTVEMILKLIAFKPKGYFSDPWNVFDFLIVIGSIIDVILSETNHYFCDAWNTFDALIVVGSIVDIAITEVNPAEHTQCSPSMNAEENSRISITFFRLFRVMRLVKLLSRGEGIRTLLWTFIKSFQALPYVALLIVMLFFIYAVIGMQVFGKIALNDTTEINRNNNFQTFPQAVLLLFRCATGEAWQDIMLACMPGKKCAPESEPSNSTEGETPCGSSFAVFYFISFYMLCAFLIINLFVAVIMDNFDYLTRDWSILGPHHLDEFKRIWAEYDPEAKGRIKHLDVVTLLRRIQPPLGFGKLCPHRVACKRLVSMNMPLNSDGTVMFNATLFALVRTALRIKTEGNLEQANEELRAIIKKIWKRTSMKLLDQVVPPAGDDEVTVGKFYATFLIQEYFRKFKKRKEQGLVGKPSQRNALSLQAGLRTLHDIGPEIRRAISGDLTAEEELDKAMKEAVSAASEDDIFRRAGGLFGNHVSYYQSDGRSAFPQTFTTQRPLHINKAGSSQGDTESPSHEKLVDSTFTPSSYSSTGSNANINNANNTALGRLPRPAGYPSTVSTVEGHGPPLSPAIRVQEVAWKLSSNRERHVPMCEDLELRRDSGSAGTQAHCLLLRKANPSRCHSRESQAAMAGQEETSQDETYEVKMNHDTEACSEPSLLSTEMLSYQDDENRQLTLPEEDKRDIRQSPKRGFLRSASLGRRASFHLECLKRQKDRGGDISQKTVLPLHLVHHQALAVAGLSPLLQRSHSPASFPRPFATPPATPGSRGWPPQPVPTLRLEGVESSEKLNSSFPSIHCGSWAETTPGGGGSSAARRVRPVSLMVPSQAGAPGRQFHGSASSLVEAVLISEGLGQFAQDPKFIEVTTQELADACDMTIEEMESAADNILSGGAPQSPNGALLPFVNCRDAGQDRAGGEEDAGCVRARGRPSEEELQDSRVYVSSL

[21] = Mean residence time in rat at 1.06 mg/kg, iv; assay type: ADME, organism-based; design: dose 1.06 mg/kg, route intravenous; conditions: in vivo
[22] = Oral bioavailability in rat at 1.06 mg/kg; assay type: ADME, organism-based; conditions: in vivo
[23] = Clearance in rat at 1.06 mg/kg, iv; assay type: ADME, organism-based; design: dose 1.06 mg/kg, route intravenous; conditions: in vivo
[24] = Cmax in rat at 1.06 mg/kg, iv; assay type: ADME, organism-based; design: dose 1.06 mg/kg, route intravenous; conditions: in vivo
[25] = system: Rattus norvegicus; assay: Dose normalized AUC in rat at 1.06 mg/kg, iv; assay type: ADME, organism-based; design: dose 1.06 mg/kg, route intravenous; conditions: in vivo
[26] = Volume of distribution at steady state in rat at 1.06 mg/kg, iv; assay type: ADME, organism-based; design: dose 1.06 mg/kg, route intravenous; conditions: in vivo, read-out: Vdss

IC50 [1] [nM]	IC50 [2] [nM]	SMILES	other results
800	630	Cc1ccc(Nc2nc(C(=O)N3CCCCC3C)cs2)cc1 (stereo not drawn)	
400	160	CC1CCN(C(=O)c2csc(Nc3ccc4c(c3)OCO4)n2)CC1	
160	25	Cc1sc(Nc2cc3c(cc2F)OCO3)nc1C(=O)N1CCCC(C)C1C (stereo not drawn)	
2500	1600	COc1ccc(Nc2nc(C(=O)N3CCC(c4ccccc4)CC3)cs2)cc1	
6300	3160	CC1CCN(C(=O)c2csc(Nc3ccccc3Cl)n2)CC1	
800	800	CC1CCN(C(=O)c2csc(Nc3ccc(Cl)cc3)n2)CC1	inhibition [3]: Active; inhibition [4]: Active
1260	500	COc1ccc(Nc2nc(C(=O)N3CCc4ccccc4C3)cs2)cc1	bioavailability [5]: 1%; Vdss [6]: 0.7 L/kg; MRT [7]: 0.3 h; AUC/dose [8]: 0.14 kg·h/L; Cmax [9]: 250 ng/mL
> 25000	> 25000	Cc1ccc(Nc2nc(C(=O)N3CCCC(c4ccccc4)C3)cs2)cc1 (stereo not drawn)	
250	80	Cc1ccc(Nc2nc(C(=O)N3CCCC(C)C3C)cs2)cc1 (stereo not drawn)	bioavailability [10]: < 1%; MRT [11]: 2.8 h; clearance [12]: 75 mL/min/kg; Cmax [13]: 310 ng/mL; IC50 [14]: 1260 nM; IC50 [15]: 6300 nM; IC50 [16]: 50000 nM; IC50 [17]: > 50000 nM; AUC/dose [18]: 0.2 kg·L·h; IC50 [19]: 8000 nM; IC50 [20]: 10000 nM
10000	1260	Cc1sc(Nc2ccc3c(c2)OCO3)nc1C(=O)N1CCc2ncccc2C1C (stereo not drawn)	MRT [21]: 1.3 h; bioavailability [22]: 65%; clearance [23]: 9.3 mL/min/kg; Cmax [24]: 1800 ng/mL; AUC/dose [25]: 1.86 kg·h/L; Vd [26]: 0.7 L/kg
12600	15800	Cc1ccc(Nc2nc(C(=O)N3CCCCC3c3ccccc3)cs2)cc1 (stereo not drawn)	
630	400	Cc1ccc(Nc2nc(C(=O)N3CCC(C)CC3)cs2)cc1	
